# Biological target: T1, NBD1 (Homo sapiens, UniProt P13569)
# T1 construct: Purified recombinant NBD1 was produced using previously described methods; made in house
# Experiment: Aggregation analysis using differential static light scattering (DSLS), thermal stability of NBD1 (ΔTagg)
# Assay type: binding
# Settings: ΔTagg versus DMSO control, NBD1 0.2 mg/ml
# How it was run: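 NBD1 0.2 mg/ml, S200 buffer (50 mM Tris-HCl, 150 mM NaCl, 5 mM MgCl2, 2 mM ATP, 2 mM DTT, pH7.6) + 1% glycerol; cpd in DMSO; oil overlay. Ramp 25→70° C. at 1° C./min, DSLS images every 0.5° C. ΔTagg = Tagg (inflection) − mean DMSO Tagg.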
# T1 sequence (P13569 423-646 limits assumed): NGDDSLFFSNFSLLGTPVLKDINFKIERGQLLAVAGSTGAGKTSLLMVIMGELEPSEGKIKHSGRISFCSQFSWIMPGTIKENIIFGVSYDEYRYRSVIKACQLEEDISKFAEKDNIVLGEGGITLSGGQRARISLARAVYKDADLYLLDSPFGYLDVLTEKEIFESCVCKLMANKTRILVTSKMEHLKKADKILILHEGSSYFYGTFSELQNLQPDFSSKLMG
row,Structure (SMILES),DSLS 3D (100 μM ΔT)
1,"Cn1nc2nc1-c1cc(ccc1F)Oc1c(F)c(F)c3[nH]ccc3c1CCS(=O)(=O)CC(C)(C)CCC[C@]2(C)c1cccc(CC(C)(C)C(=O)O)c1 [Compound 324, 2,2-Dimethyl-3-[3-[(6R)-21,22,28-trifluoro-3,6,10,10-tetramethyl-12,12-dioxo-24-oxa-12λ6-thia-3,4,19,30-tetrazapentacyclo[23.3.1.12,5.015,23.016,20]triaconta-1(29),2(30),4,15,17,20,22,25,27-nonaen-6-yl]phenyl]propanoic Acid]",B (a value above 5 °C and less than or equal to 10 °C is marked “B”)
2,"Cn1nc2nc1-c1cc(ccc1F)Sc1c(F)c(F)c3[nH]cc(CC(=O)O)c3c1CCS(=O)(=O)CC(C)(C)CCC[C@]2(C)c1ccccc1 [Compound 325, 2-[(6R)-21,22,28-Trifluoro-3,6,10,10-tetramethyl-12,12-dioxo-6-phenyl-12λ6,24-dithia-3,4,19,30-tetrazapentacyclo[23.3.1.12,5.015,23.016,20]triaconta-1(29),2(30),4,15,17,20,22,25,27-nonaen-17-yl]acetic Acid]",B (a value above 5 °C and less than or equal to 10 °C is marked “B”)
3,C[C@H](Cc1cccc([C@@]2(C)CCCC(C)(C)CS(=O)(=O)CCc3c(c(F)c(F)c4[nH]cc(Cl)c34)Oc3ccc(F)c(c3)-c3nc2nn3C)c1)C(=O)O [Compound 327],A (an ΔTagg value less than or equal to 5 °C is marked “A”)
4,"C[C@H](Cc1cccc([C@@]2(C)CCCC(C)(C)CS(=O)(=O)CCc3c(c(F)c(F)c4[nH]ccc34)Oc3ccc(F)c(c3)-c3nc2nn3C)c1)C(=O)NS(=O)(=O)C1CC1 [Compound 328, (2R)—N-Cyclopropylsulfonyl-2-methyl-3-[3-[(6R)-21,22,28-trifluoro-3,6,10,10-tetramethyl-12,12-dioxo-24-oxa-12λ6-thia-3,4,19,30-tetrazapentacyclo[23.3.1.12,5.015,23.016,20]triaconta-1(29),2(30),4,15,17,20,22,25,27-nonaen-6-yl]phenyl]propenamide]",B (a value above 5 °C and less than or equal to 10 °C is marked “B”)
5,"C[C@@H](Cc1cccc([C@@]2(C)CCCC(C)(C)CS(=O)(=O)CCc3c(c(F)cc4[nH]ccc34)S(=O)(=O)c3ccc(F)c(c3)-c3nc2nn3C)c1)C(=O)O [Compound 329, (2S)-3-[3-[(6R)-22,28-Difluoro-3,6,10,10-tetramethyl-12,12,24,24-tetraoxo-12λ6,24λ6-dithia-3,4,19,30-tetrazapentacyclo[23.3.1.12,5.015,23.016,20]triaconta-1(29),2(30),4,15,17,20,22,25,27-nonaen-6-yl]phenyl]-2-methyl-propanoic Acid]",B (a value above 5 °C and less than or equal to 10 °C is marked “B”)
6,"C[C@@H](Cc1cccc([C@@]2(C)CCCC(C)(C)CS(=O)(=O)CCc3c(c(F)cc4[nH]ccc34)S(=O)(=O)c3cccc(c3)-c3coc2n3)c1)C(=O)O [Compound 331, (2S)-3-[3-[(6R)-22-Fluoro-6,10,10-trimethyl-12,12,24,24-tetraoxo-4-oxa-12λ6,24λ6-dithia-19,30-diazapentacyclo[23.3.1.12,5.015,23.016,20]triaconta-1(29),2,5(30),15,17,20,22,25,27-nonaen-6-yl]phenyl]-2-methyl-propanoic acid]",A (an ΔTagg value less than or equal to 5 °C is marked “A”)
7,CC(=O)OC[C@H](Cc1cccc([C@@]2(C)CCCC(C)(C)CS(=O)(=O)CCc3c(c(F)cc4[nH]ccc34)Sc3ccnc(c3)-c3nc2nn3C)c1)OC(C)=O [Compound 332],A (an ΔTagg value less than or equal to 5 °C is marked “A”)
8,"Cn1nc2nc1-c1cc(ccn1)Sc1c(F)cc3[nH]ccc3c1CCS(=O)(=O)CC(C)(C)CCC[C@]2(C)c1cccc(C[C@H](O)CO)c1 [Compound 333, (2S)-3-[3-[(6R)-22-Fluoro-3,6,10,10-tetramethyl-12,12-dioxo-12λ6,24-dithia-3,4,19,28,30-pentazapentacyclo[23.3.1.12,5.015,23.016,20]triaconta-1(29),2(30),4,15,17,20,22,25,27-nonaen-6-yl]phenyl]propane-1,2-diol]",B (a value above 5 °C and less than or equal to 10 °C is marked “B”)
9,"Cn1nc2nc1-c1cc(ccn1)S(=O)(=O)c1c(F)cc3[nH]ccc3c1CCS(=O)(=O)CC(C)(C)CCC[C@]2(C)c1cccc(C[C@H](O)CO)c1 [Compound 335, (2S)-3-[3-[(6R)-22-Fluoro-3,6,10,10-tetramethyl-12,12,24,24-tetraoxo-12λ6,24λ6-dithia-3,4,19,28,30-pentazapentacyclo[23.3.1.12,5.015,23.016,20]triaconta-1(29),2(30),4,15,17,20,22,25,27-nonaen-6-yl]phenyl]propane-1,2-diol]",A (an ΔTagg value less than or equal to 5 °C is marked “A”)
10,"CC(=O)OC[C@@H](Cc1cccc([C@@]2(C)CCCC(C)(C)CS(=O)(=O)CCc3c(c(F)cc4[nH]ccc34)Sc3ccnc(c3)-c3nc2nn3C)c1)OC(C)=O [Compound 336A, [(2R)-2-Acetoxy-3-[3-[(6R)-22-fluoro-3,6,10,10-tetramethyl-12,12-dioxo-12λ6,24-dithia-3,4,19,28,30-pentazapentacyclo[23.3.1.12,5.015,23.016,20]triaconta-1(29),2(30),4,15,17,20,22,25,27-nonaen-6-yl]phenyl]propyl]Acetate]",A (an ΔTagg value less than or equal to 5 °C is marked “A”)
11,"Cn1nc2nc1-c1cc(ccn1)Sc1c(F)cc3[nH]ccc3c1CCS(=O)(=O)CC(C)(C)CCC[C@]2(C)c1cccc(C[C@@H](O)CO)c1 [Compound 336B, (2R)-3-[3-[(6R)-22-Fluoro-3,6,10,10-tetramethyl-12,12-dioxo-12λ6,24-dithia-3,4,19,28,30-pentazapentacyclo[23.3.1.12,5.015,23.016,20]triaconta-1(29),2(30),4,15,17,20,22,25,27-nonaen-6-yl]phenyl]propane-1,2-diol]",A (an ΔTagg value less than or equal to 5 °C is marked “A”)
12,"Cn1nc2nc1-c1cc(ccn1)S(=O)(=O)c1c(F)cc3[nH]ccc3c1CCS(=O)(=O)CC(C)(C)CCC[C@]2(C)c1cccc(C[C@@H](O)CO)c1 [Compound 338, (2R)-3-[3-[(6R)-22-Fluoro-3,6,10,10-tetramethyl-12,12,24,24-tetraoxo-12λ6,24λ6-dithia-3,4,19,28,30-pentazapentacyclo[23.3.1.12,5.015,23.016,20]triaconta-1(29),2(30),4,15,17,20,22,25,27-nonaen-6-yl]phenyl]propane-1,2-diol]",A (an ΔTagg value less than or equal to 5 °C is marked “A”)
13,"CC(=O)OC[C@H](Cc1cccc([C@@]2(C)CCCC(C)(C)CS(=O)(=O)CCc3c(c(F)c(F)c4[nH]ccc34)Sc3ccnc(c3)-c3nc2nn3C)c1)OC(C)=O [Compound 339, [(2S)-2-acetoxy-3-[3-[(6R)-21,22-difluoro-3,6,10,10-tetramethyl-12,12-dioxo-12λ6,24-dithia-3,4,19,28,30-pentazapentacyclo[23.3.1.12,5.015,23.016,20]triaconta-1(29),2(30),4,15,17,20,22,25,27-nonaen-6-yl]phenyl]propyl]Acetate]",A (an ΔTagg value less than or equal to 5 °C is marked “A”)

# — patent US12649750B2, “Macrocyclic compounds, compositions, and methods of using thereof” (Sionna Therapeutics Inc., priority 2022, dated 2026)
